Data from PMC12068666, “Synthesis of thiazole-integrated pyrrolotriazinones: evaluations of cytotoxicity and effects on PI3K levels in cancer cells” (Turkish Journal of Chemistry, 2025).

How the values were obtained:
MCF-7 cells = test: MTT assay, antiproliferative activity, MCF-7; format: cell-based, human; details: for IC50: Homo sapiens, MCF7, MTT, 24 h treatment, mean ± SD; for Selectivity Index (SI) MCF-7: IC50 of healthy cells (NIH/3T3)/IC50 of cancer cells
Experimental: (§1) MCF-7 (human ER + breast cancer, HTB-22, USA), A549 (human nonsmall cell lung cancer, ATTC CRM-CCL-185, USA), HepG2 (human liver cancer, ATTC HB-8065, USA), and NIH/3T3 (mouse embryonic fibroblast, ATCC, CRL-1658, USA) cells were maintained in DMEM supplemented with 10% fetal bovine serum and 1% penicillin/streptomycin. The cells were maintained under appropriate conditions (37 °C, 5% CO2).
(§2) The antiproliferative activity of the newly synthesized compounds was measured using the MTT assay as described in a previous study. Briefly, cells were seeded at a density of 6 × 10^3 cells/well and incubated for 24 h in a 37 °C humidified incubator with 5% CO2. Afterwards, the cells were treated with increasing concentrations (1, 2.5, 5, 10, 25, 50, 75, and 100 μM) of compounds and incubated for another 24 h. Moreover, some cells were incubated with doxorubicin (1, 5, 10, 25, and 50 μM) for comparison, while other cells treated only with 1% DMSO was used as the solvent control. After incubation, 20 μL of MTT solution (5 mg/mL in PBS) was added to each well, and the plate was incubated for 4 h under the same conditions. Following this period, the medium was discarded and replaced with DMSO. The absorbance of dissolved formazan crystals was measured using a multiplate reader. The IC50 value and the selectivity index of each compound were calculated as previously described.
(§3) The antiproliferative effect of all newly synthesized thiazole-integrated pyrrolotriazinone derivatives were assessed against cancer cell lines (MCF-7, A549, and HepG2) as well as a healthy cell line (NIH/3T3) using the MTT assay. The IC50 values were determined through the nonlinear regression algorithm for log (inhibitor) versus normalized response-variable slope, as implemented in GraphPad [Y = 100/(1 + 10^X−LogIC50), where X represents the logarithm of the inhibitor concentration and Y denotes the response]. Additionally, Selectivity Indices (SI: IC50 of healthy cells/IC50 of cancer cells) were calculated.

A549 cells = test: MTT assay, antiproliferative activity, A549; format: cell-based, human; details: for IC50: Homo sapiens, A549, MTT, 24 h treatment, mean ± SD; for Selectivity Index (SI) A549: IC50 of healthy cells (NIH/3T3)/IC50 of cancer cells
Experimental: as §1, §2, §3

HepG2 cells = test: MTT assay, antiproliferative activity, HepG2; format: cell-based, human; details: for IC50: Homo sapiens, HepG2, MTT, 24 h treatment, mean ± SD; for Selectivity Index (SI) HepG2: IC50 of healthy cells (NIH/3T3)/IC50 of cancer cells
Experimental: as §1, §2, §3

NIH/3T3 cells = test: MTT assay, healthy cell line NIH/3T3; format: cell-based; details: Mus musculus, NIH3T3, 24 h treatment, mean ± SD
Experimental: as §1, §2, §3

## COc1cccc2c1C(=O)c1c(O)c3c(c(O)c1C2=O)C[C@@](O)(C(=O)CO)C[C@@H]3O[C@H]1C[C@H](N)[C@H](O)[C@H](C)O1 [Dox, doxorubicin, reference compound]
MCF-7 cells
  IC50: 1.34 ± 0.07 µM
  Selectivity Index (SI) MCF-7: 2.6
A549 cells
  IC50: 0.61 ± 0.12 µM
  Selectivity Index (SI) A549: 5.83
HepG2 cells
  IC50: 1.27 ± 0.24 µM
  Selectivity Index (SI) HepG2: 2.8
NIH/3T3 cells
  IC50: 3.56 ± 0.02 µM

## O=c1n(-c2nc(-c3ccc(C(F)(F)F)cc3)cs2)ncc2cccn12 [Compound 19, 3-(4-(4-(trifluoromethyl)phenyl)thiazol-2-yl)pyrrolo[1,2-d][1,2,4]triazin-4(3H)-one]
MCF-7 cells
  IC50: 61.8 ± 1.42 µM
  Selectivity Index (SI) MCF-7: 2.41
A549 cells
  IC50: 79.5 ± 1.13 µM
  Selectivity Index (SI) A549: 1.87
HepG2 cells
  IC50: 52.8 ± 0.79 µM
  Selectivity Index (SI) HepG2: 2.82
NIH/3T3 cells
  IC50: > 100 µM

## COc1ccc(-c2csc(-n3ncc4cccn4c3=O)n2)cc1OC [Compound 23, 3-(4-(3,4-dimethoxyphenyl)thiazol-2-yl)pyrrolo[1,2-d][1,2,4]triazin-4(3H)-one]
MCF-7 cells
  IC50: 15.2 ± 0.183 µM
  Selectivity Index (SI) MCF-7: 5.49
A549 cells
  IC50: 43.3 ± 1.09 µM
HepG2 cells
  IC50: 17.2 ± 0.81 µM
  Selectivity Index (SI) HepG2: 4.85
NIH/3T3 cells
  IC50: 83.44 ± 0.15 µM

## Cc1ccc(-c2csc(-n3ncc4cccn4c3=O)n2)cc1 [Compound 15, 3-(4-(p-tolyl)thiazol-2-yl)pyrrolo[1,2-d][1,2,4]triazin-4(3H)-one]
MCF-7 cells
  IC50: > 100 µM
  Selectivity Index (SI) MCF-7: 1.01
A549 cells
  IC50: > 100 µM
  Selectivity Index (SI) A549: 0.84
HepG2 cells
  IC50: > 100 µM
  Selectivity Index (SI) HepG2: 0.85
NIH/3T3 cells
  IC50: > 100 µM

## O=c1n(-c2nc(-c3cc4ccccc4o3)cs2)ncc2cccn12 [Compound 30, 3-(4-(benzofuran-2-yl)thiazol-2-yl)pyrrolo[1,2-d][1,2,4]triazin-4(3H)-one]
MCF-7 cells
  IC50: > 100 µM
  Selectivity Index (SI) MCF-7: 1.57
A549 cells
  IC50: > 100 µM
  Selectivity Index (SI) A549: 1.51
HepG2 cells
  IC50: > 100 µM
  Selectivity Index (SI) HepG2: 1.90
NIH/3T3 cells
  IC50: > 100 µM

## O=c1n(-c2nc(-c3ccc([N+](=O)[O-])cc3)cs2)ncc2cccn12 [Compound 18, 3-(4-(4-nitrophenyl)thiazol-2-yl)pyrrolo[1,2-d][1,2,4]triazin-4(3H)-one]
MCF-7 cells
  IC50: 79.19 ± 0.61 µM
  Selectivity Index (SI) MCF-7: 2.08
A549 cells
  IC50: > 100 µM
  Selectivity Index (SI) A549: 1.51
HepG2 cells
  IC50: > 100 µM
  Selectivity Index (SI) HepG2: 1.60
NIH/3T3 cells
  IC50: > 100 µM

## Cc1csc(-n2ncc3cccn3c2=O)n1 [Compound 13, 3-(4-methylthiazol-2-yl)pyrrolo[1,2-d][1,2,4]triazin-4(3H)-one]
MCF-7 cells
  IC50: > 100 µM
  Selectivity Index (SI) MCF-7: 1.01
A549 cells
  IC50: > 100 µM
  Selectivity Index (SI) A549: 0.94
HepG2 cells
  IC50: > 100 µM
  Selectivity Index (SI) HepG2: 1.32
NIH/3T3 cells
  IC50: > 100 µM

## O=c1n(-c2nc(-c3ccc(O)cc3)cs2)ncc2cccn12 [Compound 16, 3-(4-(4-hydroxyphenyl)thiazol-2-yl)pyrrolo[1,2-d][1,2,4]triazin-4(3H)-one]
MCF-7 cells
  IC50: > 100 µM
  Selectivity Index (SI) MCF-7: 1.10
A549 cells
  IC50: > 100 µM
  Selectivity Index (SI) A549: 1.32
HepG2 cells
  IC50: > 100 µM
  Selectivity Index (SI) HepG2: 1.02
NIH/3T3 cells
  IC50: > 100 µM

## O=c1n(-c2nc(-c3cccs3)cs2)ncc2cccn12 [Compound 32, 3-(4-(thiophen-2-yl)thiazol-2-yl)pyrrolo[1,2-d][1,2,4]triazin-4(3H)-one]
MCF-7 cells
  IC50: 83.71 ± 0.81 µM
  Selectivity Index (SI) MCF-7: 2.43
A549 cells
  IC50: > 100 µM
  Selectivity Index (SI) A549: 1.68
HepG2 cells
  IC50: > 100 µM
  Selectivity Index (SI) HepG2: 2.00
NIH/3T3 cells
  IC50: > 100 µM
